Data as given in patent publication US20140301961A1, “COMPOUNDS WITH ANTI-AGING ACTIVITIES” (priority 2011, published 2014).

Tests used:
Keratin 1/10 = Keratin 1/10 production in human normal keratinocytes; format: cell-based; settings: concentration not given
Description: (§1) Keratinocytes were cultured in commercially available keratinocyte medium M154 (Cascade Biologics/Invitrogen) # M154500 with a final calcium […]. Supplements were added meeting following final concentrations of growth factors; bovine pituitary extract (BPE), 0.2% v/v·bovine insulin, 5 μg/ml·hydrocortisone, 0.18 μg/ml·bovine transferrin, 5 μg/ml·human epidermal growth factor, 0.2 ng/ml.
(§2) Medium was changed every other day. Cells were grown to 80% confluence prior stimulation with compounds. Experiments were performed in 24-well plates. The cells were treated with individual compounds of the invention for 6 days. After 3 days the medium was refreshed. A source of calcium ions was used as a positive control. After 6 days tissue culture medium was stored in −20° C. until analysis.
Cells were cultured as described in Example 5.1. and the methodology described in Example 3.1 was adapted in order analyze keratin 1/10 production.

Kallikrein 8 = Kallikrein 8 ELISA in human normal keratinocytes; format: cell-based; settings: 4 days stimulation (FIG. 14)
Description: as §1
Keratinocytes used for Kallikrein 8 experiments were cultured as described in example 2.1. Experiments were performed in monolayers with 80% confluence. The cells were stimulated for 4 days prior to kallikrein 8 analysis with the different actives and then culture supernatant were collected and stored in −20° C. until further analysis. Kallikrein 8 production was analysed in cell culture supernatants from stimulated keratinocytes using a ELISA assay specific for Kallikrein 8 (Uscn Life Science Inc, E90690Hu). Results were compared with cell culture supernatants from DMSO vehicle treated cells. The assays utilized a 96-well microplate format and were processed according to the manufacturer's protocol, including generation of a standard curve prepared in background assay diluents. Absorbance of the assay dye was read at a Synergy HT plate reader. Values that fell within the linear range of the calibration assay were accepted. Quantities were determined by comparison to standard curves obtained for KLK8.

keratin 6 = assay: Keratin-6 production in normal human keratinocytes; format: cell-based; settings: normal human keratinocytes (FIG. 11)
fibronectin = assay: Fibronectin production in human keratinocytes; format: cell-based; settings: 6 days stimulation, compared to all-trans retinoic acid and retinol
Description: as §1, §2
Experimental method as outlined in Example 3.1 was modified in order to analyze fibronectin levels extracted from keratinocytes stimulated for 6 days with all-trans retinoic acid, retinol, arachidonic acid, β-aescin, and […] (ethyl ester) at a range of concentrations. Experiments were performed in duplicates.
Cells were cultured as described in Example 5.1. and the methodology described in Example 3.1 was adapted in order analyze fibronectin production.

pro-collagen type 1 = assay: Pro-collagen 1 ELISA in dermal fibroblasts; format: cell-based, human; settings: 24 hour stimulation, 3 donors (FIG. 5)
Description: (§3) MMP-inhibitory activity for compounds of the invention was also assessed on human dermal fibroblasts. Dermal fibroblasts were cultured in Dulbecco's Modified Eagle Medium (DMEM) (Invitrogen) with 10% EBS (ex. Invitrogen) and 1% Pencillin/Streptavidin (ex. Invitrogen). To induce inflammation in the cells, PMA (phorbol myristate acetate) (ex. Sigma) was used at a concentration of 10 nM. […] The cells were stimulated for 24 h and the culture supernatant was collected and stored at −20° C. until further analysis.
Fibroblast cells were cultured as outlined in Example 3.1 and treated with compounds of the invention The secretion of pro-collagen in the cell culture supernatants were analyzed using Pro-Collagen 1 specific ELISA (#8003; ex. Quidel). Results were compared with cell culture supernatants from DMSO vehicle treated cells. The assays utilized a 96-well microplate format and were processed according to the manufacturer's protocol, including generation of a standard curve prepared in background assay diluents. Absorbance of the assay dye was read at a Synergy HT plate reader. Values that fell within the linear range of the calibration assay were accepted. Quantities were determined by comparison to standard curve obtained for pro-collagen 1.

[1] = cited from earlier work
VEGF = assay: Inflammation induced VEGF synthesis in cultured dermal fibroblasts; format: cell-based, human; settings: inflammatory inducer PMA (FIG. 10)
Description: as §3
Fluorokine MultiAnalyte Profiling (xMAP) using the BioPlex (ex. Biorad) dual laser flow-based sorting and detection analyzers manufactured by Luminex corporation (Luminex, Austin, Tex.) was employed to measure levels of MMP in conditioned media samples of stimulated dermal fibroblasts. The technology incorporated polystyrene microspheres dyed internally with differing ratios of two spectrally distinct fluorophores to create a family of different spectrally addressed bead sets. The bead utilized in this study was conjugated with a biotinylated capture antibody specific for a unique MMPs, The assay was performed without antecedent serum depletion. Results were compared with medium from cells treated with vehicle only (DMSO). The assays utilized a 96-well microplate format and were processed according to the manufacturer's protocol, including generation of a standard curve for each target prepared in background assay diluents. Values that fell within the linear range of the calibration assay were accepted. Samples were analyzed using the Bio-Plex suspension array system and Bio-Plex Manager software 4.0 (Bio-Rad Laboratories, Hercules, Calif.). Quantities were determined by comparison to standard curves obtained for the different MMP.
Cell culture and cytokine analysis was carried out on human dermal fibroblasts as described in Example 3.1. The methodology was adapted in order analyze VEGF production.

[2] = tested on: arachidonate 5-lipoxygenase (ALOX5); assay: Affymetrix gene array on skin explants, ALOX5; format: cell-based, human; settings: topical, 24 hours
Text: (§4) Subcutaneous fat from full thickness skin, obtained from surgical waste material from breast reduction procedures, was removed with a scalpel. Three healthy Caucasian female donors were used for this study. The female donors differed from those of the skin-treatment study outlined previously 8 mm punch biopsies were taken from the skin (and these biopsies are now referred to as skin explants). Skin explants were put on Milipore cell culture inserts (12 mm diameter). Inserts containing skin explants were put in 6-well plates (one insert/well) and 1 mL of supplemented keratinocyte medium (ex Cascade Biologics) was added to each well. A tretinoin-containing cream (Aberela® ex. Janssen): 0.05% tretinoin in the cream, was applied topically to each explant (5 μL/cm^2) using a positive displacement pipette. A placebo cream without tretinoin was used as a control. The skin explants were incubated with tretinoin for 24 hours at 37° C. in 5% CO2-humidified air.
(§5) RNA concentration was measured with ND-1000 spectrophotometer (ex. NanoDrop Technologies) and RNA quality was evaluated using the Agilent 2100 bioanalyzer system (ex. Agilent Technologies). 250 nanograms of total RNA from each skin or skin explant sample was used to prepare biotinylated fragmented cRNA according to the GeneChip® 3′IVT Express Kit Manual (PN702646 Rev 1, ex. Affymetrix Inc.). Affymetrix GeneChip® expression arrays (Human Genome U133 Plus 2.0) were hybridized for 16 hours in a 45° C. incubator, rotated at 60 rpm. According to the GeneChip Expression Wash, Stain and Scan Manual (PN 702731 Rev 2, ex. Affymetrix Inc.) the arrays were washed and stained using the Fluidics Station 450 and scanned using the GeneChip® Scanner 3000 7G.
(§6) Analysis of the gene expression data was carried out in the statistical computing language R (http://www.r-project.org) using packages available from the Bioconductor project (www.bioconductor.org). The raw data was normalized using the robust multi-array average (RMA) method. In order to search for differentially expressed genes between the X samples and the Y samples group an empirical Bayes moderated t-test was then applied using the ‘limma’ package.
(§7) Skin explants were obtained as detailed in Example 3.1.

[3] = tested on: heparin-binding EGF-like growth factor (HBEGF); assay: Affymetrix gene array on skin explants, HBEGF; format: cell-based, human; settings: topical, 24 hours, cut-off |log 2−ratio|>1
Text: as §4, §5
Analysis of the gene expression data was carried out in the statistical computing language R (http://www.r-project.org) using packages available from the Bioconductor project (www.bioconductor.org). The raw data was normalized using the robust multi-array average (RMA) method. […]

[4] = tested on: Plasminogen activator (PLAT); assay: Plasminogen activator (PLAT) activation
[5] = tested on: steroid 5 alpha-reductase 3 (SRD5A3); assay: Affymetrix gene array on skin explants, SRD5A3; format: cell-based, human; settings: topical, 24 hours
Text: as §4, §5, §6, §7

[6] = tested on: connective tissue growth factor (CTGF); assay: Affymetrix gene array on skin explants, CTGF; format: cell-based, human; settings: topical, 24 hours
Text: as §4, §5, §6
Skin explants were obtained as detailed in Example 3.1. Compounds naringenin and N-acetyl aspartic acid were topically applied on skin explants for 24 hours and investigated with Affymetrix gene array.

[7] = tested on: hydroxysteroid (17-beta) dehydrogenase 2 (HSD17B2); assay: Affymetrix gene array on skin explants, HSD17B2; format: cell-based, human; settings: topical, 24 hours
Text: as §4, §5, §6, §7

[8] = tested on: tachykinin, precursor 1 (TAC1); assay: Affymetrix gene array on skin explants, TAC1; format: cell-based, human; settings: topical, 24 hours
Text: as §4, §5, §6, §7

[9] = tested on: prostaglandin-endoperoxide synthase 1 (PTGS1); assay: Affymetrix gene array on skin explants, PTGS1; format: cell-based, human; settings: topical, 24 hours
Text: as §4, §5, §6, §7

Compound	production of Keratin 1/10 (Keratin 1/10)	synthesis of kallikrein 8 (Kallikrein 8)	fibronectin production / release (fibronectin)	production of pro-collagen type 1 (pro-collagen type 1)	inflammatory induced VEGF synthesis (VEGF)	also measured
CC/C=C\C/C=C\C/C=C\C/C=C\C/C=C\C/C=C\CCC(=O)OCC [Docosahexaenoic acid (ethyl ester)]	stimulate production of Keratin 1/10	significant increase in the synthesis of kallikrein 8	higher fibronectin production than retinoic acid	convincing trend towards increasing	–	keratin-6 production (keratin 6): stimulated keratin-6 production
CCCCC/C=C\C/C=C\C/C=C\C/C=C\CCCC(=O)O [Arachdonic acid, Arachidonic acid]	stimulate production of Keratin 1/10	significant increase in the synthesis of kallikrein 8	higher fibronectin production than retinoic acid	promote pro-collagen 1 expression	–	Log p [1]: 6.98
CC1=C(/C=C/C(C)=C/C=C/C(C)=C/CO)C(C)(C)CCC1 [retinol, All-trans retinol, reference compound]	–	significant stimulation of kallikrein 8	–	–	small but insignificant decrease in VEGF	–
O=c1cc(-c2ccc(O)cc2)oc2c([C@@H]3O[C@H](CO)[C@@H](O)[C@H](O)[C@H]3O)c(O)cc(O)c12 [Vitexin]	–	–	–	–	–	Log p [1]: 1.5
O=c1c(O)c(-c2ccc(O)c(O)c2)oc2cc(O)cc(O)c12 [Quercetin]	stimulate production of Keratin 1/10	induce production of Kallikrein 8	–	promote pro-collagen 1 expression	–	–
CC1=C(/C=C/C(C)=C/C=C/C(C)=C/C(=O)O)C(C)(C)CCC1 [All-trans retinoic acid, all-trans retinoic acid, reference compound]	–	significant stimulation of kallikrein 8	–	–	additional increase in VEGF	ALOX5 gene expression [2]: −0.69 log 2−ratio; HBEGF gene expression [3]: 1.21 log 2−ratio; Plasminogen activator (PLAT) activation [4]: activated; SRD5A3 gene expression [5]: 0.29 log 2−ratio; CTGF gene expression ([6]; cut-off |log 2−ratio|>1): No; CTGF gene expression ([6]; cut-off |log 2−ratio|>1, listed as all-trans retinoic acid): did not have any effect; HSD17B2 gene expression [7]: −0.48 log 2−ratio; TAC1 gene expression [8]: −4.01 log 2−ratio; PTGS1 gene expression [9]: −1.03 log 2−ratio
β-aescin [Beta Aescin]	stimulate production of Keratin 1/10	induce production of Kallikrein 8	higher fibronectin production than retinoic acid	convincing trend towards increasing	decreased VEGF expression, although insignificant	–
